Data on 1 compound can be found in publication PMC7055211 (Scientific Reports, 2020).

The assay concerns Mahoney strain of poliovirus. It is filed as cell-based, Poliovirus Type I Mahoney. The conditions noted are these: 293 T; infectivity; PFU.

`COc1ccc2[nH]c([S+]([O-])Cc3ncc(C)c(OC)c3C)nc2n1` (stereo not shown) [Tenatoprazole, tenatoprazole]: the “Virus Production (resistant or susceptible), PV” value is reported as “Resistant”.
